The source made the active and inactive calls. No rule for the calls is given here.

Data on five molecules can be found in PubChem BioAssay AID1259411 (Chemical Carcinogenesis Research Information System (CCRIS), 2018).

The test system of this series is rodent carcinogenicity bioassays, tumor incidence. Put plainly: CCRIS carcinogenicity studies. Put shortly:
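NCI-built, expert-reviewed records of carcinogenicity and related test outcomes (mutagenicity, tumor promotion/inhibition) compiled from published and report sources, historical span 1985-2011, not updated.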

In the case of `O=C(O)CCCc1ccc(N(CCCl)CCCl)cc1`, the carcinogen call by setting is: (Species: HUMAN, Route: ORAL, Tumor Site: Type of Lesion: HEMATOPOIETIC SYSTEM (LEUKEMIA)) “active; positive”; (Species: MOUSE, Strain/Sex: BALB/FEMALE, Route: INTRAGASTRIC, Dose: 0, 1 MG/KG SUSPENDED IN WATER 5/WK FOR 12 WK (STUDY DURATION: 120 WK), Tumor Site: Type of Lesion: LUNG: ADENOMA) “active; positive”; (Species: MOUSE, Strain/Sex: BALB/FEMALE, Route: INTRAGASTRIC, Dose: 0, 1 MG/KG SUSPENDED IN WATER 5/WK FOR 12 WK (STUDY DURATION: 120 WK), Tumor Site: Type of Lesion: LYMPHORETICULAR SYSTEM: TUMOR) “active; positive”; (Species: MOUSE, Strain/Sex: BALB/FEMALE, Route: INTRAGASTRIC, Dose: 0, 1 MG/KG SUSPENDED IN WATER 5/WK FOR 12 WK (STUDY DURATION: 120 WK), Tumor Site: Type of Lesion: MAMMARY GLAND: ADENOMA OR ADENOCANTHOMA) “active; positive”; (Species: MOUSE, Strain/Sex: BALB/MALE, Route: INTRAGASTRIC, Dose: 0, 1 MG/KG SUSPENDED IN WATER 5/WK FOR 12 WK (STUDY DURATION: 120 WK), Tumor Site: Type of Lesion: LUNG: ADENOMA) “active; positive”; (Species: MOUSE, Strain/Sex: BALB/MALE, Route: INTRAGASTRIC, Dose: 0, 1 MG/KG SUSPENDED IN WATER 5/WK FOR 12 WK (STUDY DURATION: 120 WK), Tumor Site: Type of Lesion: LYMPHORETICULAR SYSTEM: TUMOR) “active; positive”. For the same molecule, the carcinogen call is “active; positive” (Species: MOUSE, Strain/Sex: STRAIN-A/MALE,FEMALE, Route: INTRAPERITONEAL, Dose: 9.6, 37, 150, 420 MG/KG (TOTAL DOSES) IN 0.5% ACACIA OR 0.01% TRICAPRYLIN SOLN 3/WK FOR 4 WK, Dose: 9.6, 37, 150, 420 MG/KG (TOTAL DOSES) IN 0.5% ACACIA OR 0.01% TRICAPRYLIN SOLN 3/WK FOR 4 WK, Tumor Site: Type of Lesion: LUNG: ADENOMA, ADENOCARCINOMA); “active; positive” (Species: MOUSE, Strain/Sex: SWISS/FEMALE, Route: INTRAPERITONEAL, Dose: 1.5, 3.0 MG/KG 3/WK FOR 6 MO, Tumor Site: Type of Lesion: LUNG: ADENOMA, LYMPHATIC SYSTEM: LYMPHOSARCOMA, OVARIES, Tumor Site: Type of Lesion: LUNG: ADENOMA, LYMPHATIC SYSTEM: LYMPHOSARCOMA, OVARIES); “active; positive” (Species: MOUSE, Strain/Sex: SWISS/MALE, Route: INTRAPERITONEAL, Dose: 1.5, 3.0 MG/KG 3/WK FOR 6 MO, Tumor Site: Type of Lesion: HEMATOPOIETIC SYSTEM (LEUKEMIA), LYMPHATIC SYSTEM: LYMPHOSARCOMA, LUNG: ADENOMA, Tumor Site: Type of Lesion: HEMATOPOIETIC SYSTEM (LEUKEMIA), LYMPHATIC SYSTEM: LYMPHOSARCOMA, LUNG: ADENOMA); “active; positive” (Species: RAT, Strain/Sex: CD-1/MALE, Route: INTRAPERITONEAL, Dose: 2.2, 4.5 MG/KG 3/WK FOR 6 MO, Tumor Site: Type of Lesion: HEMATOPOIETIC SYSTEM (LEUKEMIA), LYMPHATIC SYSTEM: LYMPHOSARCOMA, RETICULAR CELL SARCOMA); “active; positive” (Species: RAT, Strain/Sex: SPRAGUE-DAWLEY/FEMALE, Route: GAVAGE, Dose: 0, 3 MG/KG ADMINISTERED 1, 2, 4.5 OR 9 TIMES PER MO FOR 18 MO TO GIVE MEDIAN TOTAL DOSES OF 54, 108, 234, 425 MG/KG (STU, Dose: 0, 3 MG/KG ADMINISTERED 1, 2, 4.5 OR 9 TIMES PER MO FOR 18 MO TO GIVE MEDIAN TOTAL DOSES OF 54, 108, 234, 425 MG/KG (STU, Tumor Site: Type of Lesion: MAMMARY GLAND: TUMOR, NERVOUS SYSTEM: TUMOR, EAR CANAL: TUMOR, Tumor Site: Type of Lesion: MAMMARY GLAND: TUMOR, NERVOUS SYSTEM: TUMOR, EAR CANAL: TUMOR).

For the molecule `OC1c2cccc3c2[C@]2(O[C@H]2C1O)c1ccccc1-3` (some centres undefined), the carcinogen call is, setting by setting: (Species: MOUSE, Strain/Sex: ICR/FEMALE, Route: INTRAPERITONEAL, Dose: 0, 500 NMOL (TOTAL DOSE) ADMINISTERED IN DOSES OF 1/7, 2/7, AND 4/7 ON DAYS 1, 7, AND 15 OF LIFE, RESPECTIVELY (STUDY DU, Tumor Site: Type of Lesion: LUNG: TUMOR) “active; positive”; (Species: MOUSE, Strain/Sex: ICR/MALE, Route: INTRAPERITONEAL, Dose: 0, 500 NMOL (TOTAL DOSE) ADMINISTERED IN DOSES OF 1/7, 2/7, AND 4/7 ON DAYS 1, 7 AND 15 OF LIFE , RESPECTIVELY (STUDY DU, Tumor Site: Type of Lesion: LUNG: TUMOR, LIVER: TUMOR) “active; positive”; (Species: RAT, Strain/Sex: STRAIN-CD/FEMALE, Route: INJECTION, Dose: 0, 2, 10 UMOL IN 0.1 ML DMSO INJECTED INTO MAMMARY TISSUE UNDER EACH OF THE 3 LEFT THORACIC NIPPLES FOLLOWED BY SIMILAR, Dose: 0, 2, 10 UMOL IN 0.1 ML DMSO INJECTED INTO MAMMARY TISSUE UNDER EACH OF THE 3 LEFT THORACIC NIPPLES FOLLOWED BY SIMILAR, Tumor Site: Type of Lesion: MAMMARY GLAND: TUMOR) “active; positive”.

Take `CC(O)CN(C)N=O` (centres undefined): the carcinogen call was “active; positive” (Species: HAMSTER, Strain/Sex: SYRIAN/FEMALE, Route: GAVAGE, Dose: 0, 1 MG IN 0.2 ML WATER 1/WK FOR 21 WK FOR A TOTAL DOSE OF 21 MG (STUDY DURATION: 45 WK), Tumor Site: Type of Lesion: LIVER: HEMANGIOSARCOMA OR HEMANGIOMA, LUNG: ALVEOLAR/BRONCHIOLAR ADENOMA, NASAL MUCOSA: CARCINOMA, Tumor Site: Type of Lesion: LIVER: HEMANGIOSARCOMA OR HEMANGIOMA, LUNG: ALVEOLAR/BRONCHIOLAR ADENOMA, NASAL MUCOSA: CARCINOMA); “active; positive” (Species: HAMSTER, Strain/Sex: SYRIAN/FEMALE, Route: GAVAGE, Dose: 0, 5 MG IN 0.2 ML WATER FOR 4 WK THEN 2 MG 1/WK FOR 14 WK FOR A TOTAL DOSE OF 48 MG (STUDY DURATION: 45 WK), Tumor Site: Type of Lesion: LIVER: HEMANGIOSARCOMA, HEPATOCELLULAR ADENOMA, CHOLANGIOCELLULAR CARCINOMA, CHOLANGIOCELLULAR ADENOMA, PANCREAS: DUCTAL); “active; positive” (Species: RAT, Strain/Sex: F344/FEMALE, Route: GAVAGE, Dose: 0, 4, 10 MG/WK FOR A TOTAL DOSE OF 0.6, 0.4 MMOL (STUDY DURATION: 50 WK), Dose: 0, 4, 10 MG/WK FOR A TOTAL DOSE OF 0.6, 0.4 MMOL (STUDY DURATION: 50 WK), Tumor Site: Type of Lesion: ESOPHAGUS: TUMOR, KIDNEY: TUMOR, THYROID: TUMOR, LUNG: TUMOR, Tumor Site: Type of Lesion: ESOPHAGUS: TUMOR, KIDNEY: TUMOR, THYROID: TUMOR, LUNG: TUMOR); “active; positive” (Species: RAT, Strain/Sex: F344/MALE, Route: GAVAGE, Dose: 0, 4 MG/WK FOR A TOTAL DOSE OF 0.6 MMOL (STUDY DURATION: 50 WK), Tumor Site: Type of Lesion: ESOPHAGUS: TUMOR, NASAL MUCOSA: TUMOR); “active; positive” (Species: RAT, Strain/Sex: WISTAR/MALE, Route: INTRAPERITONEAL, Dose: 0, 4.4, 8.8, 17.6 MG/KG IN 0.9% SALINE 1/WK FOR 12 WK (STUDY DURATION: 26 WK), Dose: 0, 4.4, 8.8, 17.6 MG/KG IN 0.9% SALINE 1/WK FOR 12 WK (STUDY DURATION: 26 WK), Tumor Site: Type of Lesion: NASAL CAVITY: CARCINOMA, PAPILLOMA).

For the molecule `NCCCCCCCCCCC(=O)O`, the carcinogen call is “inactive; negative” (Species: MOUSE, Strain/Sex: B6C3F1/FEMALE, Route: ORAL, Dose: 0, 7500, 15000 PPM IN DIET FOR 103 WK (STUDY DURATION: 103 WK), Dose: 0, 7500, 15000 PPM IN DIET FOR 103 WK (STUDY DURATION: 103 WK)); “equivocal” (Species: MOUSE, Strain/Sex: B6C3F1/MALE, Route: ORAL, Dose: 0, 7500, 15000 PPM IN DIET FOR 103 WK (STUDY DURATION: 103 WK), Dose: 0, 7500, 15000 PPM IN DIET FOR 103 WK (STUDY DURATION: 103 WK), Tumor Site: Type of Lesion: HEMATOPOIETIC SYSTEM: MALIGNANT LYMPHOMA); “inactive; negative” (Species: RAT, Strain/Sex: F344/FEMALE, Route: ORAL, Dose: 0, 7500, 15000 PPM IN DIET FOR 104 WK (STUDY DURATION: 104 WK), Dose: 0, 7500, 15000 PPM IN DIET FOR 104 WK (STUDY DURATION: 104 WK)); “active; positive” (Species: RAT, Strain/Sex: F344/MALE, Route: ORAL, Dose: 0, 7500, 15000 PPM IN DIET FOR 104 WK (STUDY DURATION: 104 WK), Dose: 0, 7500, 15000 PPM IN DIET FOR 104 WK (STUDY DURATION: 104 WK), Tumor Site: Type of Lesion: LIVER: NEOPLASTIC NODULE, URINARY BLADDER: TRANSITIONAL CELL CARCINOMA).

Turning to `C#C[C@]1(O)CC[C@H]2[C@@H]3CCc4cc(O)ccc4[C@H]3[C@@H](OC)C[C@@]21C`, the carcinogen call (Species: HAMSTER, Strain/Sex: SYRIAN/MALE, Route: SUBCUTANEOUS IMPLANT, Dose: 0, 20 MG IN PELLETS IMPLANTED EVERY 2.5 MO FOR 9 MO (STUDY DURATION: 9 MO), Tumor Site: Type of Lesion: KIDNEY: TUMOR) was “active; positive”.
